Measured values from patent US4110327A, “2,3 Diketo-piperazinocarbonylamino alkanoic acids and derivatives” (Toyama Chemical Co., Ltd., priority 1974, dated 1978).
Values after ≈ are worked out from the molar mass of the structure shown.

What was measured:
Format in all cases: cell-based
Pseudomonas aeruginosa = experiment: MIC against clinical isolates; details: unit assumed
Staphylococcus aureus = experiment: MIC against clinical isolates; details: unit assumed
Klebsiella pneumoniae [1] = experiment: MIC against clinical isolates; details: unit assumed
Escherichia coli NIHJ = experiment: MIC against standard strain, plate method; details: unit assumed
Experimental: (§1) The minimum inhibitory concentrations (MIC) was determined by the plate method disclosed in "Chemotherapy" (Japan), Vol. 16, (1968), pages 98 - 99. The culture medium used was a Heart infusion agar (pH 7.4). The number of the cells per plate used in the inoculum as 10^4 (10^6 cells/ml).

[2] = system: Staphylococcus aureus 209p; experiment: MIC against standard strain, plate method; details: unit assumed
Experimental: as §1

Proteus vulgaris 3027 = experiment: MIC against standard strain, plate method; details: Proteus vulgaris 3027, standard strain; unit assumed
Experimental: as §1

Klebsiella pneumoniae [3] = experiment: MIC against standard strain, plate method; details: unit assumed
Experimental: as §1

[4] = system: Pseudomonas aeruginosa I.F.O.; experiment: MIC against standard strain, plate method; details: unit assumed
Experimental: as §1

Escherichia coli = experiment: MIC against clinical isolates; details: unit assumed

Structure (SMILES)	MIC (Pseudomonas aeruginosa; clinical isolate GN 82) [µg/mL]	MIC (Pseudomonas aeruginosa; clinical isolate GN 163) [µg/mL]	MIC (Pseudomonas aeruginosa; clinical isolate GN 221) [µg/mL]	MIC (Pseudomonas aeruginosa; clinical isolate GN 244) [µg/mL]	MIC (Pseudomonas aeruginosa; clinical isolate GN 376) [µg/mL]	MIC (Pseudomonas aeruginosa; clinical isolate GN 383) [µg/mL]	MIC (Pseudomonas aeruginosa; clinical isolate GN 1035) [µg/mL]	MIC (Pseudomonas aeruginosa; clinical isolate GN 1091) [µg/mL]	MIC (Pseudomonas aeruginosa; clinical isolate GN 2565) [µg/mL]	MIC (Pseudomonas aeruginosa; clinical isolate GN 2987) [µg/mL]	MIC (Pseudomonas aeruginosa; clinical isolate S-1) [µg/mL]	MIC (Pseudomonas aeruginosa; clinical isolate S-2) [µg/mL]	MIC (Pseudomonas aeruginosa; clinical isolate S-3) [µg/mL]	MIC (Pseudomonas aeruginosa; clinical isolate S-4) [µg/mL]	MIC (Klebsiella pneumoniae [1]; clinical isolate GN 917) [µg/mL]	MIC (Escherichia coli NIHJ) [µg/mL]	MIC [2] [µg/mL]	MIC (Proteus vulgaris 3027) [µg/mL]	MIC (Klebsiella pneumoniae [3]) [µg/mL]	MIC [4] [µg/mL]	other results
Cc1nnc(SCC2=C(C(=O)O)N3C(=O)[C@@H](NC(=O)Cn4cnnn4)[C@H]3SC2)s1 [Sodium Cephazolin, SodiumCephazolin, reference compound]	> 200	> 200	> 200	> 200	> 200	> 200	> 200	> 200	> 200	> 200	> 200	> 200	> 200	> 200	1.56	< 1.57	< 1.57	1.57	200	> 200	MIC (Staphylococcus aureus; clinical isolate F-1): 0.78 µg/mL; MIC (Staphylococcus aureus; clinical isolate F-2): < 0.4 µg/mL; MIC (Staphylococcus aureus; clinical isolate F-3): < 0.4 µg/mL; MIC (Staphylococcus aureus; clinical isolate F-4): < 0.4 µg/mL; MIC (Staphylococcus aureus; clinical isolate F-5): 0.78 µg/mL; MIC (Staphylococcus aureus; clinical isolate MS 8588): < 0.4 µg/mL; MIC (Staphylococcus aureus; clinical isolate MS 8596): < 0.4 µg/mL; MIC (Staphylococcus aureus; clinical isolate MS 8619): < 0.4 µg/mL; MIC (Staphylococcus aureus; clinical isolate MS 8684): < 0.4 µg/mL; MIC (Staphylococcus aureus; clinical isolate MS 8713): < 0.4 µg/mL; MIC (Klebsiella pneumoniae [1]; clinical isolate GN 4081): 3.13 µg/mL; MIC (Klebsiella pneumoniae [1]; clinical isolate GN 4117): 3.13 µg/mL; MIC (Escherichia coli; clinical isolate GN 3435): 1.56 µg/mL; MIC (Escherichia coli; clinical isolate GN 3452): 1.56 µg/mL; MIC (Escherichia coli; clinical isolate GN 3481): 1.56 µg/mL; MIC (Escherichia coli; clinical isolate GN 3611): 25 µg/mL; MIC (Escherichia coli; clinical isolate K-1): 1.56 µg/mL; MIC (Escherichia coli; clinical isolate K-2): 1.56 µg/mL; MIC (Escherichia coli; clinical isolate K-3): > 200 µg/mL; MIC (Escherichia coli; clinical isolate K-4): 3.13 µg/mL
CCN1CCN(C(=O)NC(C(=O)NC2C(=O)N3C(C(=O)O)=C(CSc4nnnn4C)CSC23)c2ccccc2)C(=O)C1=O (stereo not shown) [compound 69]	12.5 (≈ 19.9 µM)	12.5 (≈ 19.9 µM)	6.25 (≈ 9.93 µM)	25 (≈ 39.7 µM)	12.5 (≈ 19.9 µM)	25 (≈ 39.7 µM)	50 (≈ 79.4 µM)	12.5 (≈ 19.9 µM)	50 (≈ 79.4 µM)	12.5 (≈ 19.9 µM)	25 (≈ 39.7 µM)	25 (≈ 39.7 µM)	50 (≈ 79.4 µM)	50 (≈ 79.4 µM)	0.78 (≈ 1.24 µM)	< 0.79	< 0.79	< 0.79	< 0.4	12.5 (≈ 19.9 µM)	MIC (Staphylococcus aureus; clinical isolate F-1): 3.13 µg/mL (≈ 4.97 µM); MIC (Staphylococcus aureus; clinical isolate F-2): 1.56 µg/mL (≈ 2.48 µM); MIC (Staphylococcus aureus; clinical isolate F-3): 0.78 µg/mL (≈ 1.24 µM); MIC (Staphylococcus aureus; clinical isolate F-4): 3.13 µg/mL (≈ 4.97 µM); MIC (Staphylococcus aureus; clinical isolate F-5): 0.78 µg/mL (≈ 1.24 µM); MIC (Staphylococcus aureus; clinical isolate MS 8588): 1.56 µg/mL (≈ 2.48 µM); MIC (Staphylococcus aureus; clinical isolate MS 8596): 1.56 µg/mL (≈ 2.48 µM); MIC (Staphylococcus aureus; clinical isolate MS 8619): 0.78 µg/mL (≈ 1.24 µM); MIC (Staphylococcus aureus; clinical isolate MS 8684): 1.56 µg/mL (≈ 2.48 µM); MIC (Staphylococcus aureus; clinical isolate MS 8713): 1.56 µg/mL (≈ 2.48 µM)
CN1CCN(C(=O)N[C@@H](C(=O)N[C@@H]2C(=O)N3C(C(=O)[O-])=C(C[n+]4ccccc4)CS[C@H]23)c2ccccc2)C(=O)C1=O [compound 68]	6.25 (≈ 10.8 µM)	12.5 (≈ 21.6 µM)	3.13 (≈ 5.41 µM)	25 (≈ 43.2 µM)	12.5 (≈ 21.6 µM)	12.5 (≈ 21.6 µM)	50 (≈ 86.4 µM)	12.5 (≈ 21.6 µM)	50 (≈ 86.4 µM)	12.5 (≈ 21.6 µM)	25 (≈ 43.2 µM)	25 (≈ 43.2 µM)	25 (≈ 43.2 µM)	25 (≈ 43.2 µM)	1.56 (≈ 2.7 µM)	< 0.79	1.57 (≈ 2.71 µM)	1.57 (≈ 2.71 µM)	< 0.79	12.5 (≈ 21.6 µM)	MIC (Staphylococcus aureus; clinical isolate F-1): 1.56 µg/mL (≈ 2.7 µM); MIC (Staphylococcus aureus; clinical isolate F-2): 1.56 µg/mL (≈ 2.7 µM); MIC (Staphylococcus aureus; clinical isolate F-3): 0.78 µg/mL (≈ 1.35 µM); MIC (Staphylococcus aureus; clinical isolate F-4): 6.25 µg/mL (≈ 10.8 µM); MIC (Staphylococcus aureus; clinical isolate F-5): 0.78 µg/mL (≈ 1.35 µM); MIC (Staphylococcus aureus; clinical isolate MS 8588): 1.56 µg/mL (≈ 2.7 µM); MIC (Staphylococcus aureus; clinical isolate MS 8596): 1.56 µg/mL (≈ 2.7 µM); MIC (Staphylococcus aureus; clinical isolate MS 8619): 0.78 µg/mL (≈ 1.35 µM); MIC (Staphylococcus aureus; clinical isolate MS 8684): 1.56 µg/mL (≈ 2.7 µM); MIC (Staphylococcus aureus; clinical isolate MS 8713): 3.13 µg/mL (≈ 5.41 µM)
CCN1CCN(C(=O)N[C@@H](C(=O)N[C@@H]2C(=O)N3[C@@H]2SC(C)(C)[C@@H]3C(=O)O)c2ccccc2)CC1=O [compound 19]	12.5 (≈ 24.8 µM)	12.5 (≈ 24.8 µM)	12.5 (≈ 24.8 µM)		12.5 (≈ 24.8 µM)	12.5 (≈ 24.8 µM)	100 (≈ 199 µM)	12.5 (≈ 24.8 µM)	50 (≈ 99.3 µM)	12.5 (≈ 24.8 µM)	50 (≈ 99.3 µM)	50 (≈ 99.3 µM)	50 (≈ 99.3 µM)	50 (≈ 99.3 µM)	50 (≈ 99.3 µM)	< 1.57	< 1.57	3.13 (≈ 6.22 µM)	50 (≈ 99.3 µM)	12.5 (≈ 24.8 µM)	MIC (Pseudomonas aeruginosa; clinical isolate GN (number not given; Table 5-3)): 25 µg/mL (≈ 49.6 µM); MIC (Klebsiella pneumoniae [1]; clinical isolate GN 3850): 100 µg/mL (≈ 199 µM); MIC (Klebsiella pneumoniae [1]; clinical isolate GN 4081): > 200 µg/mL; MIC (Klebsiella pneumoniae [1]; clinical isolate GN 4117): > 200 µg/mL
CN1CCN(C(=O)N[C@@H](C(=O)N[C@@H]2C(=O)N3[C@@H]2SC(C)(C)[C@@H]3C(=O)OCOC(=O)C(C)(C)C)c2ccccc2)C(=O)C1=O (single isomer, unassigned) [compound 52]																0.79 (≈ 1.28 µM)	0.79 (≈ 1.28 µM)	1.57 (≈ 2.54 µM)	25 (≈ 40.5 µM)	25 (≈ 40.5 µM)	
C=CC(C)N1CCN(C(=O)N[C@@H](C(=O)N[C@@H]2C(=O)N3[C@@H]2SC(C)(C)[C@@H]3C(=O)O)c2ccccc2)CC1=O (single isomer, unassigned) [compound 26]																< 1.57	< 1.57	12.5 (≈ 23.6 µM)	25 (≈ 47.2 µM)	25 (≈ 47.2 µM)	
C/C=C/CN1CCN(C(=O)N[C@@H](C(=O)N[C@@H]2C(=O)N3[C@@H]2SC(C)(C)[C@@H]3C(=O)O)c2ccccc2)CC1=O [compound 28]																< 1.57	< 1.57	3.13 (≈ 5.91 µM)	25 (≈ 47.2 µM)	25 (≈ 47.2 µM)	
CN1CCN(C(=O)NC(C(=O)NC2C(=O)N3C2SC(C)(C)C3C(=O)O)C2=CCC=CC2)C(=O)C1=O (stereo not shown) [compound 57]																< 0.79	< 0.79	3.13 (≈ 6.19 µM)	12.5 (≈ 24.7 µM)	12.5 (≈ 24.7 µM)	
CC(C)N1CCN(C(=O)N[C@@H](C(=O)N[C@@H]2C(=O)N3[C@@H]2SC(C)(C)[C@@H]3C(=O)O)c2ccccc2)CC1=O [compound 20]																< 1.57	3.13 (≈ 6.05 µM)	3.13 (≈ 6.05 µM)	25 (≈ 48.3 µM)	12.5 (≈ 24.1 µM)	
